Measurements: ChEMBL document CHEMBL1136086, “6-Alkyl, alkoxy, or alkylthio-substituted 3-(4-methanesulfonylphenyl)-4-phenylpyran-2-ones: a novel class of diarylheterocyclic selective cyclooxygenase-2 inhibitors” (Bioorg Med Chem Lett, 2003)

Assays:
[1] = target: T1, Prostaglandin G/H synthase 1 (Ovis aries, UniProt P05979)
T1 sequence (P05979 whole entry): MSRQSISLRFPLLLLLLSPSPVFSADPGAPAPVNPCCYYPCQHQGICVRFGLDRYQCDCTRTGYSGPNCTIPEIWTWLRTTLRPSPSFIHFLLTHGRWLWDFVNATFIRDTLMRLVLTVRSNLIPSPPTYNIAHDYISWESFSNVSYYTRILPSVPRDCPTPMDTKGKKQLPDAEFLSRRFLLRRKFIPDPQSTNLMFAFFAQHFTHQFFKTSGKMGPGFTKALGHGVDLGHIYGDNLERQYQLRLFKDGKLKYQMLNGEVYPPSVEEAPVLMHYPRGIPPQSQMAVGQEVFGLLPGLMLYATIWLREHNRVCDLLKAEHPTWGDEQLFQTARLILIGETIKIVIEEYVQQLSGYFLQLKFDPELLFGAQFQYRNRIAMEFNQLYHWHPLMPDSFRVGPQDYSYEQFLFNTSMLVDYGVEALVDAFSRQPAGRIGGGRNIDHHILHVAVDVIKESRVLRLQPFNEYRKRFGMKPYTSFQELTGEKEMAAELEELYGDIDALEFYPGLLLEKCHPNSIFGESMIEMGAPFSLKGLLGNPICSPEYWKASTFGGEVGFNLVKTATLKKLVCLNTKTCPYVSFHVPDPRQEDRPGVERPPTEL
Description: In vitro inhibition against ovine Prostaglandin G/H synthase 1

[2] = target: T2, Prostaglandin G/H synthase 1 (Ovis aries) (UniProt P05979); assay: In vitro selectivity ratio of Prostaglandin G/H synthase 1 to Prostaglandin G/H synthase 2
T2 sequence (whole entry): T1 sequence (P05979 whole entry)

Row | SMILES | IC50 [1] [µM] | Ratio [2]
1 | CCSc1cc(-c2ccccc2)c(-c2ccc(S(C)(=O)=O)cc2)c(=O)o1 | 386 | 
2 | Cc1cc(-c2ccccc2)c(-c2ccc(S(C)(=O)=O)cc2)c(=O)o1 | 615 | 
3 | CCOc1cc(-c2ccccc2)c(-c2ccc(S(C)(=O)=O)cc2)c(=O)o1 | 281 | 
4 | CC(C)Sc1cc(-c2ccccc2)c(-c2ccc(S(C)(=O)=O)cc2)c(=O)o1 | > 100 | 
5 | CSc1cc(-c2ccccc2)c(-c2ccc(S(C)(=O)=O)cc2)c(=O)o1 | > 100 | 35.7
6 | CC(C)c1cc(-c2ccccc2)c(-c2ccc(S(C)(=O)=O)cc2)c(=O)o1 | 341 | 

Now those with a lower IC50 [1], led by results:

Row | IC50 [1] [µM] | Ratio [2] | SMILES
7 | 4 | 2 | CC(C)Oc1cc(-c2ccccc2)c(-c2ccc(S(C)(=O)=O)cc2)c(=O)o1
8 | 14.7 | < 0.52 | COc1cc(-c2ccccc2)c(-c2ccc(S(C)(=O)=O)cc2)c(=O)o1
9 | 8 |  | CCc1cc(-c2ccccc2)c(-c2ccc(S(C)(=O)=O)cc2)c(=O)o1
